{"source": "patent US10828308B2", "about": "“Treatment of non-alcoholic fatty liver disease or non-alcoholic steatohepatitis with delayed-release 6-mercaptopurine” (Hadasit Medical Research Services and Development Ltd., priority 2015, dated 2020)", "system": "STAM model of non-alcoholic steatohepatitis (NASH mice)", "test": "In vivo efficacy study of DR6-MP in STAM model of non-alcoholic steatohepatitis", "parameters": "species or system C57BL/6 mice", "conditions": "10 mg/kg orally once daily from 6 to 9 weeks of age", "source_text": "Pathogen-free 14 day-pregnant C57BL/6 mice were obtained. NASH was established in male mice by a single subcutaneous injection of 200 τg streptozotocin after birth and feeding with a high fat diet ad libitum after 4 weeks of age (day 28±2). Mice were randomized into 5 groups of 8 mice at 6 weeks of age (day 42±2), the day before the start of treatment. Group 1 (Normal): Eight normal mice were fed with normal diet ad libitum without any treatment until 9 weeks of age. Group 2 (Vehicle): Eight NASH mice were orally administered vehicle [0.5% Methyl cellulose] in a volume of 10 mL/kg once daily from 6 to 9 weeks of age. […]\nMice in all groups were sacrificed for the following assays at 9 weeks of age: • Measurement of organ weight • Individual liver weight was measured. • Liver-to-body weight ratio was calculated. • Biochemical assays • Serum ALT and AST levels were measured. • Liver triglyceride contents were quantified. • Histological analyses for liver sections (according to a routine method). • HE staining and estimation of NAFLD Activity score. • Sirius-red staining and estimation of fibrosis area. • Immunochemical staining for F4/80 and estimation of the percentage of inflammation area. • Gene expression assays using total RNA from the liver. • Real-time RT-PCR analyses were performed for TNF-α, INF-γ, IL-10, MCP-1, CCR2, α-SMA, TGF-β, Collagen Type 1, Collagen Type 3, TIMP-1."}
{"compound": "CCCc1nc2c(C)cc(-c3nc4ccccc4n3C)cc2n1Cc1ccc(-c2ccccc2C(=O)O)cc1", "note": "[Telmisartan]", "values": [{"measurement": "fibrosis area (Sirius red-positive area) compared with the Vehicle group", "value": "significant decreases in fibrosis area"}, {"measurement": "Sirius red-positive area (%) (mean ± SD)", "setting": "liver sections at 9 weeks", "value": "0.74 ± 0.21", "unit": "%"}]}
